# What was measured:
# Type in all cases: in vivo, human
# [1] = tested on: serum testosterone; assay: Example 8: serum testosterone in men with advanced prostate cancer, versus leuprolide acetate
# Description: Eligible men were aged ≥18 years with a histologically confirmed diagnosis of prostate adenocarcinoma, and were candidates for ADT for the management of hormone-sensitive prostate cancer with one of the following clinical disease states: advanced localized disease not suitable for primary surgical or radiation therapy; evidence of PSA biochemical or clinical relapse following primary surgery or radiation therapy of curative intent; or newly diagnosed metastatic disease that was asymptomatic and without visceral involvement. […] Patients with advanced, localized MON1 or M1 disease with clinically significant symptoms or visceral involvement, who required immediate GnRH therapy, chemotherapy, or radiation therapy were not eligible for the trial.
# Serum testosterone levels were measured at each visit.
# [2] = tested on: PSA; assay: Example 8: PSA response
# Description: Eligible men were aged ≥18 years with a histologically confirmed diagnosis of prostate adenocarcinoma, and were candidates for ADT for the management of hormone-sensitive prostate cancer with one of the following clinical disease states: advanced localized disease not suitable for primary surgical or radiation therapy; evidence of PSA biochemical or clinical relapse following primary surgery or radiation therapy of curative intent; or newly diagnosed metastatic disease that was asymptomatic and without visceral involvement. Additional inclusion criteria at screening included: eugonadal serum testosterone >150 ng/dl (5.2 nmol/L); serum PSA concentration >2 ng/ml (or, when applicable, >0.2 ng/ml following radical prostatectomy or >2 ng/mL above the post-radiotherapy nadir following radiotherapy); body mass index ≥18.0 at screening and/or baseline (i.e., the subject's BMI prior to treatment commencing); and Eastern Cooperative Oncology Group (ECOG) performance status of 0 or 1. Patients with advanced, localized MON1 or M1 disease with clinically significant symptoms or visceral involvement, who required immediate GnRH therapy, chemotherapy, or radiation therapy were not eligible for the trial.
# PSA levels were measured at each visit.
# [3] = tested on: PSA; assay: Example 9: PSA
# Experimental: Eligible male patients were aged ≥18 years with a histologically confirmed diagnosis of localized, intermediate-risk prostate cancer, for whom 6-month neoadjuvant and adjuvant androgen deprivation therapy (ADT) to external beam radiation therapy (EBRT) was indicated. The criteria for establishing intermediate-risk prostate cancer included the presence of one of the following, without any high-risk feature: T2b-T2c disease, Gleason score 7, or prostate-specific antigen (PSA) 10-20 ng/mL. Additional inclusion criteria included: EBRT scheduled to begin ≥12 weeks after baseline visit; screening serum testosterone >150 ng/dL (5.2 nmol/L); screening PSA concentration >2 ng/ml; body mass index ≥18.0 at screening or baseline (i.e., the subject's BMI prior to treatment commencing); Eastern Cooperative Oncology Group performance status of 0 or 1 at screening. Based on investigator discretion and clinical assessment of the patient's overall medical and disease status, participation was allowed for older patients with high-risk disease (e.g., based on Gleason score or tumor status) who were deemed likely to benefit from 6 months of neoadjuvant/adjuvant ADT. Most patients had intermediate-risk disease. However, a few patients, based on Gleason score or tumor, node, and metastasis staging system, were technically of higher than intermediate risk.
# Both treatment arms received treatment for 24 weeks. Patients remained on treatment for at least 12 weeks before the start of external beam radiation treatment (EBRT), which was initiated for most patients between Week 13, Day 1 and Week 15, Day 1. EBRT began no later than day 1, week 17.
# Patients were evaluated every 4 weeks during the treatment period (including day 1, week 25), at end of treatment (defined as week 29), during follow-up (week 33), and at end of study (EOS).
# Samples for testosterone, luteinizing hormone (LH), FSH, and PSA concentrations were taken at screening, on day 1 of the first week (additionally days 2 and 4 for testosterone and LH), and on day 1 of weeks 2, 3, 5, 9, 13, 17, 21, 25, 29, 33, and 37 thereafter. […] Suppression of FSH was less profound than that of LH, but consistent with the literature, and was greater than that observed with GnRH agonists.
# [4] = Compound 1 80 or 120 mg QD after 320 mg load
# [5] = Compound 1 Total, End of Treatment
# [6] = Compound 1 Total, Week 49, Day 1
compound,measurement,setting,value
"CONC(=O)Nc1ccc(-c2sc3c(c2CN(C)C)c(=O)n(-c2ccc(OC)nn2)c(=O)n3Cc2c(F)cccc2F)cc1 [Compound 1, N-(4-(1-(2,6-difluorobenzyl)-5-((dimethylamino)methyl)-3-(6-methoxy-3-pyridazinyl)-2,4-dioxo-1,2,3,4-tetrahydrothieno[2,3-d]pyrimidin-6-yl)phenyl)-N′-methoxyurea]",Testosterone Mean (Std Dev),"[1]; 80 mg QD, Baseline","13.755 (4,7256) nmol/L"
same,Testosterone Median,"[1]; 80 mg QD, Baseline",12.700 nmol/L
same,Testosterone Mean (Std Dev),"[1]; 80 mg QD, End of Study",6.933 (6.4298) nmol/L
same,Testosterone Median,"[1]; 80 mg QD, End of Study",5.340 nmol/L
same,Testosterone Mean (Std Dev),"[1]; 80 mg QD, End of Treatment",7.211 (9.2178) nmol/L
same,Testosterone Median,"[1]; 80 mg QD, End of Treatment",3.125 nmol/L
same,Testosterone Mean (Std Dev),"[1]; 80 mg QD, Follow-Up",11.004 (5.9971) nmol/L
same,Testosterone Median,"[1]; 80 mg QD, Follow-Up",13.185 nmol/L
same,Testosterone Median,"[1]; 80 mg QD, Week 49, Day 1",0.380 nmol/L
same,Testosterone Median,"[1]; 120 mg QD, Baseline",14.350 nmol/L
same,Median testosterone,"[1]; 120 mg QD, EOS (12 weeks after stopping)",322.8 ng/dL
same,Median testosterone,"[1]; 120 mg QD, EOT (4 weeks after end of treatment)",72.9 ng/dL
same,Testosterone Mean (Std Dev),"[1]; 120 mg QD, End of Study",9.565 (7.6479) nmol/L
same,Testosterone Median,"[1]; 120 mg QD, End of Study",11.210 nmol/L
same,Testosterone Mean (Std Dev),"[1]; 120 mg QD, End of Treatment",3.592 (3.7809) nmol/L
same,Testosterone Median,"[1]; 120 mg QD, End of Treatment",2.530 nmol/L
same,Testosterone Median,"[1]; 120 mg QD, Follow-Up",11.450 nmol/L
same,Median testosterone,"[1]; 120 mg QD, Follow-up visit (8 weeks after stopping)",329.8 ng/dL
same,Testosterone Mean (Std Dev),"[1]; 120 mg QD, Week 49, Day 1",0.443 (0.2745) nmol/L
same,Testosterone Median,"[1]; 120 mg QD, Week 49, Day 1",0.365 nmol/L
same,serum testosterone after stopping treatment,[1]; 4 weeks after the end of treatment,> 50 ng/dL
same,visit by which average serum testosterone decreased below medical castration threshold of 50 ng/dL,[1]; [4],Day 4
same,visit by which average serum testosterone decreased below profound castration threshold of 20 ng/dL,[1]; [4],Week 5 Day 1
same,Testosterone Mean (Std Dev),"[1]; Compound 1 Total, Baseline",14.4 nmol/L
same,Testosterone Median,"[1]; Compound 1 Total, Baseline",13.600 nmol/L
same,Testosterone Mean (Std Dev),"[1]; Compound 1 Total, End of Study",8.249 (7.0702) nmol/L
same,Testosterone Median,"[1]; Compound 1 Total, End of Study",7.425 nmol/L
same,Testosterone Mean (Std Dev),[1]; [5],5.039 (6.6432) nmol/L
same,Testosterone Median,[1]; [5],2.530 nmol/L
same,Testosterone Mean (Std Dev),"[1]; Compound 1 Total, Follow-Up",12.094 (5.9829) nmol/L
same,Testosterone Median,"[1]; Compound 1 Total, Follow-Up",11.970 nmol/L
same,Testosterone Mean (Std Dev),[1]; [6],0.487 (0.3867) nmol/L
same,Testosterone Median,[1]; [6],0.380 nmol/L
same,median serum testosterone,"[1]; Compound 1 groups, weeks 5-49",< 20 ng/dL
same,testosterone surge or tumor flare after treatment initiation,[1]; in vivo,No serum testosterone surge or resultant tumor flare occurred
same,Median time from first dose to PSA nadir,[2]; 80 mg QD,16.1 Weeks
same,Median time from first dose to PSA nadir,[2]; 120 mg QD,12.3 Weeks
same,patients with ≥50% serum PSA reduction,[2]; after 4 weeks of treatment,Eighty-three percent
same,patients with ≥90% serum PSA reduction,[2]; after 4 weeks of treatment,Eight percent
same,average PSA level,[2]; by Week 13 Day 1 visit,less than 0.4 ng/ml
same,average PSA level,[2]; by Week 21 Day 1 visit,less than 0.2 ng/ml
same,PSA % responses in most patients,[2]; end of 24 weeks dosing,exceed 90%
same,PSA response following initiation of treatment compared with leuprorelin,[2]; in vivo,more rapid
same,Median PSA,[3]; Baseline,7.3 µg/L
same,Median PSA,[3]; Week 24,0.07 µg/L
same,Median PSA,[3]; Week 28/EOT visit,0.07 µg/L
same,Median PSA,[3]; Week 32/follow-up,0.2 µg/L
same,Median PSA,[3]; Week 36/EOS,0.2 µg/L
same,average PSA level,[3]; by Week 13 Day 1 visit,< 0.2 ng/mL
same,patients achieving PSA values less than 0.2 ng/ml,[3]; by the end of 12 weeks,6 of 30
same,PSA % responses in most patients,"[3]; end of 8 weeks of dosing, before radiation therapy",exceed 89%

# Reference: patent US12629370B2, “Treatment of prostate cancer” (Sumitomo Pharma Co., Ltd., priority 2016, dated 2026)
